Measured values reported in US9221808B2, “Pyridylthiazole-based ureas as inhibitors of Rho associated protein kinase (ROCK) and methods of use” (H. Lee Moffitt Cancer Center and Research Institute, Inc., priority 2010, dated 2015).
Where “and” joins values, the source holds several entries; their conditions need not be identical. Equal values may be shown once. Where a name gives a salt, the structure may show the parent alone. Read-outs that look alike come from different tables or passages of the source.

What was measured:
ROCK1 = ROCK1 (Homo sapiens (Human), UniProt Q13464); assay: FRET-based Z'-Lyte kinase assay, ROCK1; assay type: biochemical; conditions: for IC50: read-out: IC50 ± SD (μM) ROCK1; for fold decrease in activity compared to 1bo: comparator 1bo (comparator for 1bn not stated); for fold more potent/active than its enantiomer: comparator: enantiomer (1ai for 1ah, 1bf for 1be); for fold loss of potency compared to 1at: comparator 1at;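 for all read-outs here: kinase phosphorylates a coumarin/fluorescein-labelled FRET peptide, then a protease cleaves unphosphorylated peptide, progress read as donor to acceptor emission ratio after 400 nm excitation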
ROCK1, sequence (Q13464 whole entry, species assumed): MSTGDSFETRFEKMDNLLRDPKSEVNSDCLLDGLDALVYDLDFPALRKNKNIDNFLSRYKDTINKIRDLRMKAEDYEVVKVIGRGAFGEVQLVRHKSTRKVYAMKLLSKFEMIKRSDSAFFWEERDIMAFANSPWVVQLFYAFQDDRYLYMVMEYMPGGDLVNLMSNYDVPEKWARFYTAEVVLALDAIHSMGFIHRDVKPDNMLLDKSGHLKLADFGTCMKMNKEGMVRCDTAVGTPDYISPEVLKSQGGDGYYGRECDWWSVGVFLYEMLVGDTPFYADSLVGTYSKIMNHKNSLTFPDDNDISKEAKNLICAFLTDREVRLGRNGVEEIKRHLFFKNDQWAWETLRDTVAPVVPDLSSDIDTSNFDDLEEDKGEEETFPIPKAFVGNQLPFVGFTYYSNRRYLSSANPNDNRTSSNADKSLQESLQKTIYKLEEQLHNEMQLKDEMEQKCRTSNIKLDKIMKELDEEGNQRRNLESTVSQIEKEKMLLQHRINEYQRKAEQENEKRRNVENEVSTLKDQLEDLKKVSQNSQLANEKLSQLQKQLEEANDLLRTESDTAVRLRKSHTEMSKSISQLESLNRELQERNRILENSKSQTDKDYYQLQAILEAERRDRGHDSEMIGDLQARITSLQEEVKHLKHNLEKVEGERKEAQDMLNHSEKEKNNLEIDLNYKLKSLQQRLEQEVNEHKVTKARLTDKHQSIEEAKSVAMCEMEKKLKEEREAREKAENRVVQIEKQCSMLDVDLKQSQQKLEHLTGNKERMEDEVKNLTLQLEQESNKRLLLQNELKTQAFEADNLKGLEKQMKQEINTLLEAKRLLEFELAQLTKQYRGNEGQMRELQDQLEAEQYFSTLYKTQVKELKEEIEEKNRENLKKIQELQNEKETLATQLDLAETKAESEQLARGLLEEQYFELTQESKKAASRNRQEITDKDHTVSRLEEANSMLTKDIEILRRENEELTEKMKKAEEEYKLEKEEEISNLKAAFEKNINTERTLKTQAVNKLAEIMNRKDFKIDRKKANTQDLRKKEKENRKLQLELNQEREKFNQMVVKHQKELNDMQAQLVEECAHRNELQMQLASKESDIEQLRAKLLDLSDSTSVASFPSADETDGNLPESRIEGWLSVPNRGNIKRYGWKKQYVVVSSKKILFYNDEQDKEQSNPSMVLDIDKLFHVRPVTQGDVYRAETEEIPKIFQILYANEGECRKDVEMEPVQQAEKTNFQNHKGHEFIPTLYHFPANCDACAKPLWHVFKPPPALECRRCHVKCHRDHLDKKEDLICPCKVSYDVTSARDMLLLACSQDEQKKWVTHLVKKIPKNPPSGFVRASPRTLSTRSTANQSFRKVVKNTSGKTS

ROCK2 = ROCK2 (Homo sapiens (Human), UniProt O75116); assay: FRET-based Z'-Lyte kinase assay, ROCK2; assay type: biochemical; conditions: read-out: IC50 ± SD (μM) ROCK2;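 note: kinase phosphorylates a coumarin/fluorescein FRET peptide, then a protease cleaves unphosphorylated peptide, read as donor/acceptor emission ratio after 400 nm excitation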
ROCK2, sequence (O75116 whole entry, species assumed): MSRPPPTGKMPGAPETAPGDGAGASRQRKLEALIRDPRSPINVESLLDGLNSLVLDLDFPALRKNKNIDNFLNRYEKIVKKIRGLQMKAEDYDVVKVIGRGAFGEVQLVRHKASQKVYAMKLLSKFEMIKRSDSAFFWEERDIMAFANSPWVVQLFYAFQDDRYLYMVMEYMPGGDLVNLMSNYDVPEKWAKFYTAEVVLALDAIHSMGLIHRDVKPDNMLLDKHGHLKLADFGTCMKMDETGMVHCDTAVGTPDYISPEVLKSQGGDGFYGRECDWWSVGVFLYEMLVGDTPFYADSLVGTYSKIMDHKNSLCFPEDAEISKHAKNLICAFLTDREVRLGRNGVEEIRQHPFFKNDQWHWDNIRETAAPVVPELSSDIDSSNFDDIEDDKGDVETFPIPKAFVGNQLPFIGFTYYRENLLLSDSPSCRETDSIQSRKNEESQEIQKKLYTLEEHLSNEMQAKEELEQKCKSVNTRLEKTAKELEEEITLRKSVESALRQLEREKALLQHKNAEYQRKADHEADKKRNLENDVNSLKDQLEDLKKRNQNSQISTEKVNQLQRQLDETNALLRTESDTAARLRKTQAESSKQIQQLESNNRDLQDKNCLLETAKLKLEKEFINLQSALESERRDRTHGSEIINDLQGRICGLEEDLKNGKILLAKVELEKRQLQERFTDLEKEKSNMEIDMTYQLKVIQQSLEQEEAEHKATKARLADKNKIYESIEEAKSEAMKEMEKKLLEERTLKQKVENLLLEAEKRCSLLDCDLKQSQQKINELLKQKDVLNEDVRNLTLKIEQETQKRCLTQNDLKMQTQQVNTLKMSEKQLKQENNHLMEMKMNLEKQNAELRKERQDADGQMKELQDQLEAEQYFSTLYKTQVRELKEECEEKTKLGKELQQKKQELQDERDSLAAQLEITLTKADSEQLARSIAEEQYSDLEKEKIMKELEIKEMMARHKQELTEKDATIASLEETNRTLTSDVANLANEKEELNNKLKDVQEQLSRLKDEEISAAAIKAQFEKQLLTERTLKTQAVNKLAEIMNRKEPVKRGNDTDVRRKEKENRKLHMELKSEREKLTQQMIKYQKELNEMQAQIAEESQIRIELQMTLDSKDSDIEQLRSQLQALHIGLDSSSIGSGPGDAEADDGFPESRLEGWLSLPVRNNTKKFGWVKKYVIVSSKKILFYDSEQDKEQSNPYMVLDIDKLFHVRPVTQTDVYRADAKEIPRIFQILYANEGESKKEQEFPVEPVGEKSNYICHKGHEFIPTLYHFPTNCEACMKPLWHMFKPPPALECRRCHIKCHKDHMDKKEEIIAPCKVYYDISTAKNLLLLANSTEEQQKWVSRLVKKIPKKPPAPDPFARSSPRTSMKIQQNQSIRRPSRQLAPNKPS
Text: A) In the primary reaction, the Rho kinases phosphorylates a single serine or threonine residue in a synthetic FRET-peptide. This FRET-peptide is doubly labeled with a fluorophore at each end—coumarin (the FRET donor) on one end and fluorescein (the FRET acceptor) on the other—and also contains a single phosphorylation site which either overlaps with or lies adjacent to the proteolytic site. B) In the secondary reaction, a site-specific protease recognizes and cleaves the non-phosphorylated FRET-peptide. Cleavage disrupts FRET between the donor and acceptor fluorophores on the FRET-peptide, whereas uncleaved, phosphorylated FRET-peptides maintain FRET. Kinases phosphorylated FRET-peptides cannot be cleaved by the protease. […] Cleavage disrupts FRET and causes a decrease in the fluorescein fluorescence signal and a strong increase in the coumarin fluorescence signal. Therefore the extension of the phosphprylation can be measured by FRET-signal remaining the protease reaction. The assay uses a ratiometric method, which calculates the ratio of donor emission to acceptor emission (the emission ratio) after excitation of the donor fluorophore at 400 nm, to quantitate reaction progress.
All compounds were systematically screened against ROCK1 and ROCK2.

Row | IC50 (ROCK1) | IC50 (ROCK2) | Compound | further results
1 | 2.14 ± 0.62 µM | 0.29 ± 0.17 µM | CCOc1cccc(CNC(=O)Nc2nc(-c3ccncc3)cs2)c1 [Compound 1bw, 1-(3-ethoxybenzyl)-3-(4-(pyridin-4-yl)thiazol-2-yl)urea] | 
2 | 6.99 ± 1.61 µM | 3.82 ± 1.53 µM | O=C(Nc1nc(-c2ccncc2)cs1)N[C@@H]1CCCc2ccccc21 [Compound 1cv, (R)-1-(4-(Pyridin-4-yl)thiazol-2-yl)-3-(1,2,3,4-tetrahydronaphthalen-1-yl)urea] | 
3 | 0.08 ± 0.01 µM | 0.04 ± 0.016 µM | NC(=O)[C@@H](NC(=O)Nc1nc(-c2ccncc2)cs1)c1ccccc1 [Compound 1cp, (S)-2-Phenyl-2-(3-(4-(pyridin-4-yl)thiazol-2-yl)ureido)acetamide] | fold loss of potency compared to 1at (ROCK1): 11 fold
4 | 18.7 ± 2.09 µM | 3.25 ± 0.96 µM | COc1cccc([C@H](C)NC(=O)Nc2nc(-c3ccncc3)cs2)c1 [Compound 1bg, (S)-1-(1-(3-Methoxyphenyl)ethyl)-3-(4-(pyridin-4-yl)thiazol-2-yl)urea] | 
5 | 3.56 µM and 3.29 µM | 1.6 µM and 1.9 µM | C[C@H](NC(=O)Nc1nc(-c2ccncc2)cs1)c1ccccc1 [Compound 1ai, (S)-1-(1-Phenylethyl)-3-(4-(pyridin-4-yl)thiazol-2-yl)urea] | 
6 | 0.05 ± 0.009 µM | 0.02 ± 0.008 µM | Nc1cccc(CNC(=O)Nc2nc(-c3ccncc3)cs2)c1 [Compound 1ay, 1-(3-Aminobenzyl)-3-(4-(pyridin-4-yl)thiazol-2-yl)urea] | fold decrease in activity compared to 1bo (ROCK1): 6 fold
7 | 36.2 ± 10 µM | 7.42 ± 2.29 µM | COc1ccc(CNC(=O)Nc2nc(-c3ccncc3)cs2)cc1 [Compound 1am-Mes, 1-(4-methoxybenzyl)-3-(4-(pyridin-4-yl)thiazol-2-yl)urea methanesulfonate] | 
8 | 0.55 ± 0.32 µM | 0.07 ± 0.02 µM | C[C@@H](NC(=O)Nc1nc(-c2ccncc2)cs1)c1cccc(Cl)c1 [Compound 1cb, (R)-1-(1-(3-chlorophenyl)ethyl)-3-(4-(pyridin-4-yl)thiazol-2-yl)urea] | 
9 | 0.15 µM and 0.17 µM | 0.09 µM and 0.05 µM | O=C(NCc1ccccc1)Nc1nc(-c2ccncc2)cs1 [Compound 1aa, 1-Benzyl-3-(4-(pyridin-4-yl)thiazol-2-yl)urea] | 
10 | 0.43 ± 0.13 µM | 0.28 ± 0.13 µM | CC(NC(=O)Nc1nc(-c2ccncc2)cs1)c1cccc(F)c1 (stereo not drawn) [Compound 1ca, 1-(1-(3-fluorophenyl)ethyl)-3-(4-(pyridin-4-yl)thiazol-2-yl)urea] | 
11 | 0.38 ± 0.046 µM | 0.14 ± 0.029 µM | O=C(NCc1ccc(O)cc1)Nc1nc(-c2ccncc2)cs1 [Compound 1ax, 1-(4-Hydroxybenzyl)-3-(4-(pyridin-4-yl)thiazol-2-yl)urea] | 
12 | 0.34 ± 0.02 µM | 0.11 ± 0.01 µM | O=C(NCc1ccccc1Cl)Nc1nc(-c2ccncc2)cs1 [Compound 1ae, 1-(2-Chlorobenzyl)-3-(4-(pyridin-4-yl)thiazol-2-yl)urea] | 
13 | 0.043 µM and 0.019 µM | 0.012 ± 0.004 µM | C[C@@H](NC(=O)Nc1nc(-c2ccncc2)cs1)c1ccccc1 [Compound 1ah, (R)-1-(1-Phenylethyl)-3-(4-(pyridin-4-yl)thiazol-2-yl)urea] | fold more potent than parent compound 1aa (ROCK1; comparator 1aa): 7 fold; fold more potent/active than its enantiomer (ROCK1): 215 fold
14 | 0.19 ± 0.04 µM | 0.07 ± 0.02 µM | CC(C)(NC(=O)Nc1nc(-c2ccncc2)cs1)c1ccccc1 [Compound 1cl, 1-(2-Phenylpropan-2-yl)-3-(4-(pyridin-4-yl)thiazol-2-yl)urea] | 
15 | 29.5 ± 3.28 µM | 11.5 ± 1.24 µM | COC[C@H](NC(=O)Nc1nc(-c2ccncc2)cs1)c1ccccc1 [Compound 1bk, (R)-1-(2-Methoxy-1-phenylethyl)-3-(4-(pyridin-4-yl)thiazol-2-yl)urea] | 
16 | 1.25 ± 0.21 µM | 0.13 ± 0.02 µM | CC(=O)Nc1cccc(CNC(=O)Nc2nc(-c3ccncc3)cs2)c1 [Compound 1ci, N-(3-((3-(4-(pyridin-4-yl)thiazol-2yl)ureido)methyl)phenyl)acetamide hydrochloride] | 
17 | 0.12 ± 0.04 µM | 0.047 ± 0.018 µM | C[C@H](c1ccccc1)N(C)C(=O)Nc1nc(-c2ccncc2)cs1 [Compound 1cn, (R)-1-Methyl-1-(1-phenylethyl)-3-(4-(pyridin-4-yl)thiazol-2-yl)urea] | 
18 | 1.17 ± 0.15 µM | 0.38 ± 0.03 µM | O=C(NCc1ccco1)Nc1nc(-c2ccncc2)cs1 [Compound 1ak1, 1-(Furan-2-ylmethyl)-3-(4-(pyridin-4-yl)thiazol-2-yl)urea] | 
19 | 45.1 ± 5.57 µM | 25 ± 1.01 µM | COc1ccc(CNC(=O)Nc2nc(-c3ccncc3)cs2)cc1OC [Compound 1ck, 1-(3,4-Dimethoxybenzyl)-3-(4-(pyridin-4-yl)thiazol-2-yl)urea] | 
20 | 52.2 ± 3.64 µM | 22 ± 7.79 µM | CC[C@H](NC(=O)Nc1nc(-c2ccncc2)cs1)c1ccccc1 [Compound 1bf, (S)-1-(1-Phenylpropyl)-3-(4-(pyridin-4-yl)thiazol-2-yl)urea] | 
21 | 2.49 ± 1.07 µM | 3.75 ± 0.39 µM | O=C(Nc1nc(-c2ccncc2)cs1)Nc1ccccc1Cl [Compound 6e, 1-(2-Chlorophenyl)-3-(4-(pyridin-4-yl)thiazol-2-yl)urea] | 
22 | 0.15 ± 0.03 µM | 0.12 ± 0.02 µM | Cc1ccccc1CNC(=O)Nc1nc(-c2ccncc2)cs1 [Compound 1bt, 1-(2-Methylbenzyl)-3-(4-(pyridin-4-yl)thiazol-2-yl)urea] | 
23 | 0.06 ± 0.04 µM | 0.002 ± 0.0015 µM | COc1cccc(CNC(=O)N(C)c2nc(-c3ccncc3)cs2)c1 [Compound 1al, 3-(3-Methoxybenzyl)-1-methyl-1-(4-(pyridin-4-yl)thiazol-2-yl)urea] | 

The next lines start with the molecule.

Row | Compound | IC50 (ROCK1) | IC50 (ROCK2) | further results
24 | O=C(Nc1nc(-c2ccncc2)cs1)N1CCc2ccccc2C1 [Compound 1cq, N-(4-(Pyridin-4-yl)thiazol-2-yl)-3,4-dihydroisoquinoline-2(1H)-carboxamide] | 3.87 ± 0.351 µM | 1.95 ± 0.389 µM | 
25 | O=C(NCc1cccc2[nH]ccc12)Nc1nc(-c2ccncc2)cs1 [Compound 1bn, 1-((1H-indol-4-yl)methyl)-3-(4-(pyridin-4-yl)thiazol-2-yl)urea] | 37.8 ± 7.81 µM | 31.1 ± 9.14 µM | fold decrease in activity compared to 1bo (ROCK1): 470 fold
26 | COc1cccc(CNC(=O)Nc2nc(-c3ccncc3)cs2)c1 [Compound 1af-Mes, 1-(3-methoxybenzyl)-3-(4-(pyridin-4-yl)thiazol-2-yl)urea methanesulfonate] |  |  | IC50 (ROCK1; methanesulfonate): 0.03 ± 0.01 µM; IC50 (ROCK2; methanesulfonate): 0.01 µM
27 | CC[C@@H](NC(=O)Nc1nc(-c2ccncc2)cs1)c1ccccc1 [Compound 1be, (R)-1-(1-Phenylpropyl)-3-(4-(pyridin-4-yl)thiazol-2-yl)urea] | 0.09 ± 0.02 µM | 0.03 ± 0.01 µM | fold decrease in ROCK1 activity/potency compared to parent compound 1aa (ROCK1; comparator 1aa): 3.5 fold; fold more potent/active than its enantiomer (ROCK1): 745 fold
28 | C[C@H](NC(=O)Nc1nc(-c2ccncc2)cs1)c1cccc(F)c1 [Compound 1cf, (S)-1-(1-(3-fluorophenyl)ethyl)-3-(4-(pyridin-4-yl)thiazol-2-yl)urea] | 30 ± 10 µM | 11 ± 6.74 µM | 
29 | O=C(Nc1nc(-c2ccncc2)cs1)N1CCN(c2ccncc2)CC1 [Compound 12a, 4-(Pyridin-4-yl)-N-(4-(pyridin-4-yl)thiazol-2-yl)piperazine-1-carboxamide] | 16.9 ± 2.11 µM | 8.35 ± 2.36 µM | 
30 | COc1cccc(CN(C)C(=O)Nc2nc(-c3ccncc3)cs2)c1 [Compound 1cm, 1-(3-Methoxybenzyl)-1-methyl-3-(4-(pyridin-4-yl)thiazol-2-yl)urea] | 0.04 ± 0.01 µM | 0.015 ± 0.004 µM | 
31 | COC[C@@H](NC(=O)Nc1nc(-c2ccncc2)cs1)c1ccccc1 [Compound 1bj, (S)-1-(2-Methoxy-1-phenylethyl)-3-(4-(pyridin-4-yl)thiazol-2-yl)urea] | 0.07 ± 0.005 µM | 0.03 ± 0.009 µM | fold loss of potency compared to 1at (ROCK1): 3.5 fold
32 | O=C(NCc1cc(F)cc(F)c1)Nc1nc(-c2ccncc2)cs1 [Compound 1cd, 1-(3,5-difluorobenzyl)-3-(4-(pyridin-4-yl)thiazol-2-yl)urea] | 4.07 ± 2.76 µM | 0.96 ± 0.56 µM | 
33 | COc1cccc(CNC(=O)Nc2nc(-c3ccncc3)cs2)c1 [Compound 1af-HCl, 1-(3-methoxybenzyl)-3-(4-(pyridin-4-yl)thiazol-2-yl)urea hydrochloride] |  |  | IC50 (ROCK1; hydrochloride): 0.023 ± 0.01 µM; IC50 (ROCK2; hydrochloride): 0.014 ± 0.01 µM
34 | O=C(NCc1cccc(Cl)c1)Nc1nc(-c2ccncc2)cs1 [Compound 1an, 1-(3-Chlorobenzyl)-3-(4-(pyridin-4-yl)thiazol-2-yl)urea] | 0.1 µM and 0.14 µM | 0.06 ± 0.01 µM | 
35 | O=C(NCc1ccccc1O)Nc1nc(-c2ccncc2)cs1 [Compound 1bp, 1-(2-Hydroxybenzyl)-3-(4-(pyridin-4-yl)thiazol-2-yl)urea] | 0.62 ± 0.019 µM | 0.28 ± 0.05 µM | 
36 | O=C(NCc1ccc(Cl)cc1Cl)Nc1nc(-c2ccncc2)cs1 [Compound 1ag, 1-(2,4-Dichlorobenzyl)-3-(4-(pyridin-4-yl)thiazol-2-yl)urea] | 1.88 ± 0.17 µM | 0.4 ± 0.07 µM | 
37 | O=C(NCc1cccnc1)Nc1nc(-c2ccncc2)cs1 [Compound 1ao, 1-(Pyridin-3-ylmethyl)-3-(4-(pyridin-4-yl)thiazol-2-yl)urea] | 0.91 ± 0.15 µM | 0.49 ± 0.07 µM | 
38 | COc1cccc(CNC(=O)Nc2nc(-c3ccncc3)cs2)c1 [Compound 1af, 1-(3-Methoxybenzyl)-3-(4-(pyridin-4-yl)thiazol-2-yl)urea] | 0.06 µM and 0.027 µM | 0.01 µM and 0.011 µM | 
39 | O=C(NCc1ccc(Cl)cc1)Nc1nc(-c2ccncc2)cs1 [Compound 1ab, 1-(4-Chlorobenzyl)-3-(4-(pyridin-4-yl)thiazol-2-yl)urea] | 2.39 ± 0.53 µM | 1.1 ± 0.16 µM | 
40 | O=C(NCc1ccccc1F)Nc1nc(-c2ccncc2)cs1 [Compound 1ac, 1-(2-Fluorobenzyl)-3-(4-(pyridin-4-yl)thiazol-2-yl)urea] | 0.4 ± 0.03 µM | 0.12 ± 0.01 µM | 
41 | CC(C)Oc1cccc(CNC(=O)Nc2nc(-c3ccncc3)cs2)c1 [Compound 1bu, 1-(3-Isopropoxybenzyl)-3-(4-(pyridin-4-yl)thiazol-2-yl)urea] | 13 ± 1.38 µM | 3.44 ± 0.87 µM | 
